Values after ≈ are worked out from the molar mass of the structure shown. Like-named read-outs stand apart in the source and are kept apart here. Marks after values point to notes of the source that are not given here.
What was measured:
[1] = tested on: Acinetobacter lwoffii (Egypt, V10); assay: MIC-assay, Mueller-Hinton broth with G-block alginate, 384-well, OD600
[2] = tested on: Pseudomonas aeruginosa (MDR 301, PSA, V2); assay: as above; conditions: Pseudomonas aeruginosa, Table 8, V2
Streptococcus oralis = assay: MIC-assay, Mueller-Hinton broth with G-block alginate, 384-well, OD600 (Table 12); assay type: cell-based; conditions: Streptococcus oralis (5610, V17) MDR, read-out: MIC
Description: (§1) Minimum inhibitory concentration (MICs) of different antibiotics for strains of Streptococcus oralis and Staphylococcus aureus (MRSA) displaying MDR phenotypes in the presence of varying concentrations of OligoCF-5/20 (0-10%). (MIC values are expressed in μg ml^−1).

[3] = tested on: Staphylococcus aureus (MRSA) U50; assay: as above; assay type: cell-based; conditions: MRSA 1040s, U50 MDR, read-out: MIC
Description: as §1

[4] = tested on: Acinetobacter baumannii MDR ACB from Libya (V4); assay: MIC assay, CAMHB with alginate oligomer, no visible growth; assay type: cell-based; conditions: for MIC: Table 1, V4 ACB (Libya)
Description: (§2) The study described in Example 1 was repeated with the following strains of bacteria and antibiotics as detailed in Tables 4, 5 and 6.
The study described in Example 1 was repeated with the following strains of Acinetobacter baumannii, antibiotics and M-block alginate oligomer in place of OligoG CF-5/20 as detailed in Table 7. The M-block oligomer is 100% M with a DPn of 15 to 18,

V22 6056 Acinetobacter = assay: as above; assay type: cell-based, Acinetobacter lwoffii; conditions: Table 5, V22 MDR Acin. lwoff
[5] = tested on: Pseudomonas aeruginosa (R22, PSA, V1); assay: MIC-assay, Mueller-Hinton broth with G-block alginate, 384-well, OD600
[6] = tested on: strains of Klebsiella pneumoniae displaying MDR phenotypes; assay: MIC-assay, Mueller-Hinton broth with G-block alginate, 384-well, OD600 (Table 10); assay type: cell-based
Description: Minimum inhibitory concentration (MICs) of different antibiotics for strains of Klebsiella pneumoniae displaying MDR phenotypes in the presence of varying concentrations of OligoCF-5/20 (0-10%). (MIC values are expressed in μg ml^−1).

[7] = tested on: Acinetobacter baumannii (MDR ACB, Libya, V4); assay: MIC-assay, Mueller-Hinton broth with G-block alginate, 384-well, OD600
[8] = tested on: Pseudomonas aeruginosa MDR R22 from China (V1); assay: MIC assay, CAMHB with alginate oligomer, no visible growth; assay type: cell-based; conditions: for MIC: Pseudomonas aeruginosa, Table 1, V1 MDR R22 PA, read-out: MIC
Description: as §2

V11 5702 (Wales) E. coli = assay: as above; assay type: cell-based; conditions: Table 5, V11 MDR E.coli
[9] = tested on: V12 5725 (Wales) Klebsiella pneumoniae; assay: as above; assay type: cell-based; conditions: Table 5, V12 MDR Kleb pneu
[10] = tested on: strains of E. coli displaying MDR phenotypes; assay: MIC-assay, Mueller-Hinton broth with G-block alginate, 384-well, OD600 (Table 11); assay type: cell-based; conditions: Escherichia coli, Escherichia coli (5702, Wales, V11) MDR, read-out: MIC
Description: (§3) Minimum inhibitory concentration (MICs) of different antibiotics for strains of E. coli and Providencia stuartii displaying MDR phenotypes in the presence of varying concentrations of OligoCF-5/20 (0-10%). (MIC values are expressed in μg ml^−1).

MDR Providencia stuartii = assay: as above; assay type: cell-based; conditions: Providencia stuartii (IR57 India, V7) MDR
Description: as §3

[11] = tested on: Burkholderia cepacia (LMG18941, ATCC-BAA-246); assay: MIC-assay, Mueller-Hinton broth with G-block alginate, 384-well, OD600
[12] = Table 9, G-block (OligoCF-5/20) 0%
[13] = Table 9, G-block (OligoCF-5/20) 2%
[14] = Table 9, G-block (OligoCF-5/20) 6%
[15] = Table 9, G-block (OligoCF-5/20) 10%

CC(C)(O/N=C(\C(=O)N[C@@H]1C(=O)N2C(C(=O)[O-])=C(C[n+]3ccccc3)CS[C@H]12)c1csc(N)n1)C(=O)O [Ceftazidime]
MIC [1, 12]: 2 µg/mL (≈ 3.66 µM)
MIC [1, 13]: 1 µg/mL (≈ 1.83 µM)
MIC [1, 14]: 0.25 µg/mL (≈ 0.457 µM)
MIC [1, 15]: 0.25 µg/mL (≈ 0.457 µM)
MIC ([2]; G-block (OligoCF-5/20) 0%): 0.5 µg/mL (≈ 0.915 µM)
MIC ([2]; G-block (OligoCF-5/20) 6%): 0.25 µg/mL (≈ 0.457 µM)
MIC (Streptococcus oralis; G-block (OligoCF-5/20) 0%): 8 µg/mL (≈ 14.6 µM)
MIC (Streptococcus oralis; G-block (OligoCF-5/20) 2%): 4 µg/mL (≈ 7.32 µM)
MIC (Streptococcus oralis; G-block (OligoCF-5/20) 6%): 0.0312 µg/mL (≈ 0.0572 µM)
MIC (Streptococcus oralis; G-block (OligoCF-5/20) 10%): 1 µg/mL (≈ 1.83 µM)
MIC ([3]; G-block (OligoCF-5/20) 0%): > 16 µg/mL
MIC ([3]; G-block (OligoCF-5/20) 2%): 16 µg/mL (≈ 29.3 µM)
MIC ([3]; G-block (OligoCF-5/20) 6%): 8 µg/mL (≈ 14.6 µM)
MIC ([3]; G-block (OligoCF-5/20) 10%): 2 µg/mL (≈ 3.66 µM)
MIC ([4]; Acinetobacter baumannii, OligoCF-5/20 0G, read-out: MIC): 512 µg/mL (≈ 937 µM)
MIC ([4]; Acinetobacter baumannii, OligoCF-5/20 +10% G, read-out: MIC): 256 µg/mL (≈ 468 µM)
effect in combination with alginate oligomers ([4]; Example 1, Acinetobacter baumannii isolate): more positive effect
MIC ([4]; OligoCF-5/20 +6% G): 512 µg/mL (≈ 937 µM)
change of MIC in combination with azithromycin by alginate oligomer ([4]; Table 3, MDR Acinetobacter baumannii isolate): reduced
MIC (V22 6056 Acinetobacter; Acinetobacter, OligoCF-5/20 0G, read-out: MIC): 16 µg/mL (≈ 29.3 µM)
MIC (V22 6056 Acinetobacter; OligoCF-5/20 +2% G): 16 µg/mL (≈ 29.3 µM)
MIC (V22 6056 Acinetobacter; OligoCF-5/20 +6% G): 4^† μg/ml
MIC (V22 6056 Acinetobacter; OligoCF-5/20 +10% G): 2^† μg/ml
MIC ([5]; Table 8, G-block (OligoCF-5/20) 0%): > 16 µg/mL
MIC ([5]; Table 8, G-block (OligoCF-5/20) 2%): > 16 µg/mL
MIC ([5]; Table 8, G-block (OligoCF-5/20) 6%): > 16 µg/mL
MIC ([5]; Table 8, G-block (OligoCF-5/20) 10%): > 16 µg/mL
MIC ([6]; Klebsiella pneumoniae (5712, Wales, V12) MDR, G-block (OligoCF-5/20) 0%, read-out: MIC): > 16 µg/mL
MIC ([6]; Klebsiella pneumoniae (5712, Wales, V12) MDR, G-block (OligoCF-5/20) 2%, read-out: MIC): 8 µg/mL (≈ 14.6 µM)
MIC ([6]; Klebsiella pneumoniae (5712, Wales, V12) MDR, G-block (OligoCF-5/20) 6%, read-out: MIC): > 16 µg/mL
MIC ([6]; Klebsiella pneumoniae (5712, Wales, V12) MDR, G-block (OligoCF-5/20) 10%, read-out: MIC): > 16 µg/mL
MIC ([6]; Klebsiella pneumoniae (IR25, India, V6) MDR, G-block (OligoCF-5/20) 0%, read-out: MIC): > 1020 µg/mL
MIC ([6]; Klebsiella pneumoniae (IR25, India, V6) MDR, G-block (OligoCF-5/20) 2%): 1020 µg/mL (≈ 1870 µM)
MIC ([6]; Klebsiella pneumoniae (IR25, India, V6) MDR, G-block (OligoCF-5/20) 6%, read-out: MIC): > 1020 µg/mL
MIC ([6]; Klebsiella pneumoniae (IR25, India, V6) MDR, G-block (OligoCF-5/20) 10%): 1020 µg/mL (≈ 1870 µM)
MIC ([6]; Klebsiella pneumoniae (K3, India, V8) MDR, G-block (OligoCF-5/20) 0%, read-out: MIC): > 1020 µg/mL
MIC ([6]; Klebsiella pneumoniae (K3, India, V8) MDR, G-block (OligoCF-5/20) 2%, read-out: MIC): > 1020 µg/mL
MIC ([6]; Klebsiella pneumoniae (K3, India, V8) MDR, G-block (OligoCF-5/20) 6%, read-out: MIC): > 1020 µg/mL
MIC ([6]; Klebsiella pneumoniae (K3, India, V8) MDR, G-block (OligoCF-5/20) 10%, read-out: MIC): > 1020 µg/mL
MIC [7, 12]: 16 µg/mL (≈ 29.3 µM)
MIC [7, 13]: 8 µg/mL (≈ 14.6 µM)
MIC [7, 14]: 8 µg/mL (≈ 14.6 µM)
MIC [7, 15]: 8 µg/mL (≈ 14.6 µM)
MIC ([8]; OligoCF-5/20 0G): 128 µg/mL (≈ 234 µM)
MIC ([8]; OligoCF-5/20 +2% G): 64 µg/mL (≈ 117 µM)
MIC ([8]; OligoCF-5/20 +6% G): 32 µg/mL (≈ 58.5 µM)
MIC ([8]; OligoCF-5/20 +10% G): 8 µg/mL (≈ 14.6 µM)
change of MIC in combination with azithromycin by alginate oligomer ([8]; Table 3, MDR R22 PA strain): reduced
MIC (V11 5702 (Wales) E. coli; Escherichia coli, OligoCF-5/20 0G, read-out: MIC): 128 µg/mL (≈ 234 µM)
MIC (V11 5702 (Wales) E. coli; OligoCF-5/20 +2% G): 64^† μg/ml
MIC (V11 5702 (Wales) E. coli; OligoCF-5/20 +6% G): 32^† μg/ml
MIC (V11 5702 (Wales) E. coli; OligoCF-5/20 +10% G): 64^† μg/ml
MIC ([9]; Klebsiella pneumoniae, OligoCF-5/20 0G, read-out: MIC): 64 µg/mL (≈ 117 µM)
MIC ([9]; OligoCF-5/20 +2% G): 64 µg/mL (≈ 117 µM)
MIC ([9]; OligoCF-5/20 +6% G): 16^† μg/ml
MIC ([9]; OligoCF-5/20 +10% G): 16^† μg/ml
MIC ([10]; G-block (OligoCF-5/20) 0%): > 16 µg/mL
MIC ([10]; G-block (OligoCF-5/20) 2%): > 16 µg/mL
MIC ([10]; G-block (OligoCF-5/20) 6%): > 16 µg/mL
MIC ([10]; G-block (OligoCF-5/20) 10%): > 16 µg/mL
MIC (MDR Providencia stuartii; G-block (OligoCF-5/20) 0%): > 1020 µg/mL
MIC (MDR Providencia stuartii; G-block (OligoCF-5/20) 2%): > 1020 µg/mL
MIC (MDR Providencia stuartii; G-block (OligoCF-5/20) 6%): > 1020 µg/mL
MIC (MDR Providencia stuartii; G-block (OligoCF-5/20) 10%): > 1020 µg/mL
MIC ([11]; ATCCBAA246|LMG18941, Table 8, G-block (OligoCF-5/20) 0%): > 16 µg/mL
MIC ([11]; ATCCBAA246|LMG18941, Table 8, G-block (OligoCF-5/20) 2%): 16 µg/mL (≈ 29.3 µM)
MIC ([11]; ATCCBAA246|LMG18941, Table 8, G-block (OligoCF-5/20) 6%): 16 µg/mL (≈ 29.3 µM)
MIC ([11]; ATCCBAA246|LMG18941, Table 8, G-block (OligoCF-5/20) 10%): 16 µg/mL (≈ 29.3 µM)

— patent US9801901B2, “Alginate oligomers for use in overcoming multidrug resistance in bacteria” (priority 2009, dated 2017)
